The source of these data is US6344211B1, “Transdermal absorption of active substances from subcooled melts” (LTS Lohmann Therapie-Systeme GmbH, priority 1994, dated 2002).

For data set [1] the following is noted: cited from earlier work.
Data set [2] in a line: dissociation constant (pKa) of the acids used. The class given is physicochemical. Particulars: determined by experiment. Here is the method:
Column 1 indicates the number of the experiment, column 2 the concentration of buprenorphine base, column 3 the quality and quantity of the acid used, column 4 the dissociation constant of the acids used, column 5 the plasticizer, column 6 the polymers used, and column 7 the absorption rate under in-vitro-conditions. The relative amount of buprenorphine base diffusing through mice skin within 24 h, relative to the amount per TTS, is given. The penetration results were obtained using mice skin clamped in a Franz-Cell.
It is seen from column 4 that the dissociation constants of the carboxylic acids used are quite similar. However, if the plasticizer, oleyl oleate, is used in a 10%-concentration each time, it can be seen from Examples 1 and 3 or 2 and 4 that only the carboxylic acids having a tendency to form subcooled melts cause a marked penetration increase under in-vitro conditions. […] This was compensated by a higher concentration of the two weaker acids, amounting to 15%, as compared to the concentration of the two stronger acids. However, it can also be seen that the dissociation constants are so similar that the absorption-promoting effect cannot be explained by the dissociation constants.

Where two headings read alike, the source gives them in different places. Marks after values point to notes of the source that are not given here.

`O=C(O)CCCC(=O)O` [glutaric acid]: in data set [1] (pKa I of glutaric acid, given for the glutaric acid monomethyl ester line), the pKa value is 4.33*.

Take `CC(=O)CCC(=O)O` [levulic acid]: in data set [2], the pKa value was 4.4**. Regarding `C=CCCCCCCCCC(=O)O` [undecenoic acid], the pKa value in data set [1] (dissociation constant of the acid used in the TTS) is reported as 4.5.
